Measurements taken from the supplement of paper PMC10307832.

Assays:
Test in all cases: relative viability (nuclei count vs DMSO), 5 days (fraction); higher = more cells survive
[1] = compound: COc1cccc2cc(-c3nc([C@H]4CC[C@H](C(=O)O)CC4)n4ncnc(N)c34)[nH]c12 [OSI-027] + CS(=O)(=O)N1CCN(Cc2cc3nc(-c4cccc5[nH]ncc45)nc(N4CCOCC4)c3s2)CC1 [Pictilisib] (partner 1 µM)
In short: (§1)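 Relative viability divides the nuclei count in treated wells by that in vehicle wells. Lung cancer cell lines were seeded in 1536-well plates, dosed by pin tool the next day, and fixed and stained after 5 days in one step with final 0.05% Triton X-100, 1% formaldehyde and 1 ug/ml Hoechst. Dosing was a single drug or a fixed anchor-drug dose plus five library-drug doses (not always all listed) in √10 steps, and values are medians of duplicate plates imaged at 4×.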

[2] = compound: COc1cccc2cc(-c3nc([C@H]4CC[C@H](C(=O)O)CC4)n4ncnc(N)c34)[nH]c12 [OSI-027] + CC(=O)c1c(C)c2cnc(Nc3ccc(N4CCNCC4)cn3)nc2n(C2CCCC2)c1=O [Palbociclib] (partner 0.5 µM)
In short: as §1

[3] = compound: CCCS(=O)(=O)Nc1ccc(F)c(C(=O)c2c[nH]c3ncc(-c4ccc(Cl)cc4)cc23)c1F [Vemurafenib] + N=C(N)NC(=N)NCCc1ccccc1 [Phenformin] (partner 250 µM)
In short: as §1

[4] = compound: Cc1nc(NC(=O)N2CCC[C@H]2C(N)=O)sc1-c1ccnc(C(C)(C)C(F)(F)F)c1 [Alpelisib] + Nc1nc2[nH]cc(CCc3ccc(C(=O)N[C@@H](CCC(=O)O)C(=O)O)cc3)c2c(=O)[nH]1 [Pemetrexed] (partner 0.2 µM)
In short: as §1

Cell Line | relative viability ([1]; first compound 0.01 µM) | relative viability ([1]; first compound 0.03162 µM) | relative viability ([1]; first compound 0.1 µM) | relative viability ([1]; first compound 0.3162 µM) | relative viability ([1]; first compound 1 µM) | relative viability ([2]; first compound 0.01 µM) | relative viability ([2]; first compound 0.03162 µM) | relative viability ([2]; first compound 0.1 µM) | relative viability ([2]; first compound 0.3162 µM) | relative viability ([2]; first compound 1 µM) | relative viability ([3]; first compound 0.03162 µM) | relative viability ([3]; first compound 0.1 µM) | relative viability ([3]; first compound 0.3162 µM) | relative viability ([3]; first compound 1 µM) | relative viability ([4]; first compound 0.04 µM) | relative viability ([4]; first compound 0.1265 µM) | relative viability ([4]; first compound 0.4 µM) | relative viability ([4]; first compound 1.265 µM) | relative viability ([4]; first compound 4 µM)
NCI-H2085 | 0.436 | 0.367 | 0.483 | 0.33 | 0.323 | 0.463 | 0.515 | 0.458 | 0.428 | 0.446 | 0.65 | 0.57 | 0.683 | 0.676 | 0.848 | 0.847 | 0.86 | 0.865 | 0.803
NCI-H647 | 0.395 | 0.398 | 0.234 | 0.276 | 0.15 | 0.389 | 0.371 | 0.351 | 0.354 | 0.155 | 0.439 | 0.404 | 0.446 | 0.376 | 0.182 | 0.168 | 0.193 | 0.161 | 0.155
BEN | 0.59 | 0.472 | 0.371 | 0.328 | 0.272 | 0.487 | 0.47 | 0.425 | 0.471 | 0.472 | 0.255 | 0.299 |  | 0.249 | 0.723 | 0.598 | 0.844 | 0.794 | 0.85
NCI-H1944 | 0.369 | 0.349 | 0.32 | 0.287 | 0.247 | 0.336 | 0.3 | 0.327 | 0.234 | 0.205 | 0.206 | 0.18 | 0.122 | 0.191 | 0.596 | 0.695 | 0.677 | 0.5 | 0.502
NCI-H1395 | 0.559 | 0.705 | 0.514 | 0.458 | 0.554 | 0.654 | 0.609 | 0.529 | 0.45 | 0.505 | 0.425 | 0.433 |  | 0.495 | 0.96 | 0.747 | 0.92 | 0.718 | 0.714
201T | 0.688 | 0.683 | 0.667 | 0.553 | 0.541 | 0.354 | 0.36 | 0.342 | 0.368 | 0.38 | 0.421 | 0.491 | 0.42 | 0.456 | 0.328 | 0.325 | 0.361 | 0.305 | 0.269
NCI-H2405 | 0.406 | 0.345 | 0.292 | 0.228 | 0.242 | 0.509 | 0.491 | 0.472 | 0.401 | 0.34 | 0.382 | 0.374 |  | 0.368 | 1.08 | 0.975 | 1.02 | 0.814 | 0.571
RERF-LC-KJ | 0.508 | 0.542 | 0.492 | 0.393 | 0.344 | 1.07 | 0.957 | 0.99 | 0.817 | 0.457 | 0.428 | 0.408 | 0.398 | 0.498 | 0.504 | 0.477 | 0.456 | 0.406 | 0.464
NCI-H1993 | 0.808 | 0.906 | 0.86 | 0.798 | 0.691 | 0.613 | 0.491 | 0.414 | 0.432 | 0.381 | 0.532 |  | 0.595 | 0.468 | 0.606 | 0.544 | 0.571 | 0.545 | 0.432
EPLC-272H | 0.287 | 0.308 | 0.296 | 0.316 | 0.215 | 0.332 | 0.379 | 0.342 | 0.316 | 0.29 | 0.355 | 0.226 | 0.263 | 0.362 | 0.394 | 0.363 | 0.355 | 0.276 | 0.238
NCI-H1915 | 0.947 | 0.988 | 0.78 | 0.716 | 0.572 | 0.535 | 0.523 | 0.429 | 0.388 | 0.268 | 0.354 | 0.348 | 0.255 | 0.332 | 0.498 | 0.527 | 0.525 | 0.49 | 0.428
LC-2-ad | 0.427 | 0.373 | 0.501 | 0.474 | 0.221 | 0.548 | 0.46 | 0.516 | 0.528 | 0.344 | 0.549 | 0.583 |  | 0.569 | 0.276 | 0.276 | 0.275 | 0.267 | 0.271
NCI-H2126 | 0.519 | 0.487 | 0.455 | 0.419 | 0.407 | 0.362 | 0.361 | 0.36 | 0.34 | 0.347 | 0.513 | 0.485 |  | 0.533 | 0.686 | 0.752 | 0.674 | 0.584 | 0.509
HCC-44 | 0.521 | 0.572 | 0.481 | 0.32 | 0.365 | 0.904 | 0.945 | 0.955 | 0.929 | 0.877 | 0.157 | 0.206 |  | 0.213 | 0.65 | 0.706 | 0.698 | 0.65 | 0.619
HOP-62 | 0.565 | 0.76 | 0.467 | 0.674 | 0.254 | 0.475 | 0.49 | 0.418 | 0.457 | 0.287 | 0.628 | 0.651 | 0.585 | 0.595 | 0.342 | 0.28 | 0.364 | 0.26 | 0.297
LCLC-103H | 0.588 | 0.641 | 0.582 | 0.568 | 0.561 | 0.484 | 0.538 | 0.513 | 0.498 | 0.493 | 0.312 | 0.342 | 0.262 | 0.307 | 0.476 | 0.488 | 0.506 | 0.47 | 0.333
HARA | 0.334 | 0.402 | 0.397 | 0.242 | 0.258 | 0.307 | 0.272 | 0.196 | 0.195 | 0.165 | 0.434 | 0.283 | 0.328 | 0.323 | 0.254 | 0.249 | 0.26 | 0.23 | 0.274
